Laboratory results published in patent publication US20180155737A1, “METHOD FOR MODULATING PLANT ROOT ARCHITECTURE” (priority 2012, published 2018).
Entries after “also recorded” stand apart in the source; their conditions may differ. Square brackets hold non-standard residues; d marks the D form. Ends that are not written are not given here. Hyp = O=C(O)[C@@H]1C[C@@H](O)CN1

Key:
soybean seedlings = experiment: Liquid culture, root formation of soybean seedlings; format: in vivo; settings: 1 μM peptide
Description: The plants were grown in liquid supplemented with F medium with or without peptides for two weeks. The medium contained 5 mM KNO3. GmRAR peptide: NFR(P)TAPGHS(P)GVGH where (P) is hydroxyproline. Students' t-test, **; P<0.01; N>6. Error bars represent SE.
The plants were grown in liquid supplemented with F medium with or without peptides for two weeks. The media contained 5 mM KNO3. GmRAR peptide: […] where (P) is hydroxyproline.
Primary root length was also affected (FIG. 21).

M. truncatula roots = experiment: Exogenous application of synthetic RAR peptides to M. truncatula roots (lateral roots, CCP sites/bumps, root growth); format: in vivo, Medicago truncatula; settings: for Periodic bump (CCP site) formation: synthetic peptide applied to roots
Description: Seeds of M. truncatula cv Jemalong genotype A17 wild-type and M. truncatula 2HA line carrying either GH3 promoter-GUS reporter fusion gene (GH3:GUS) were grown under standard conditions (Holmes P, Goffard N, Weiller G F, Rolfe B G, & Imin N (2008), “Transcriptional profiling of Medicago truncatula meristematic root cells”, BMC Plant Biol 8:21).
The RAR peptides were synthesized at the Biomolecular Resource Facility, The Australian National University. The 15 amino acid (aa) peptides corresponding to the conserved domains of MtRAR1 (AFQHypTTPGNSHypGVGH and […]ypGVGH, where Hyp indicates hydroxy proline residue) and M. hapla MhRAR2 (AFRHypTAPGHSHypGVGH) were synthesized and validated as previously described in Djordjevic M A. et al. (2011), “Border sequences of Medicago truncatula CLE36 are specifically cleaved by endoproteases common to the extracellular fluids of Medicago and soybean”. J Exp Bot 62(13):4649-4659. The root length of wild-type plants was measured four days after transfer to Fåhraeus-medium containing the synthetic peptide. For the hormone assays, A17 plants were grown on Fåhraeus-medium for 10 days before transferring to Fåhraeus-medium containing 10^−6 M of the respective phytohormones; 1-aminocyclopropant-1-carboxylic acid (ACC), 6-benzylaminopurine (BAP), gibberallic acid (GA), synthetic analog of strigolactone (GR24), methyljasmonate (MeJA) and 1-naphthaleneacetic acid (NAA).

[1] = system: Arabidopsis thaliana WT Col plants; experiment: RAR bioactivity in Arabidopsis at different concentrations; format: in vivo
Description: To investigate the effect of different modifications on peptide bioactivity, several peptides were assayed for activity at different concentrations (Table 4), WT Col plants were grown vertically on ½ MS plates with 1% phytagel and containing varying concentration of RAR peptide ranging from 10^−6 M to 10^−12 M or no peptide. Plates were imaged at 12 days.

[2] = system: M. truncatula root nodulation by S. meliloti; experiment: Nodulation with S. meliloti of peptide-treated M. truncatula plants; format: in vivo, Medicago truncatula
Excerpt: The 3-weeks old transformed hairy-roots plants were first transferred to a modified Fahraeus media without […] and kanamycin to starve the plants of nitrogen for 4 days. Inoculation with Sinorhizobium meliloti was done as described in Saur I M, Oakes M, Djordjevic M A, & Imin N (2011), “Crosstalk between the nodulation signaling pathway and the autoregulation of modulation in Medicago truncatula”, New Phytol 190(4):[…].
(§1) (b) partial nitrate tolerance of nodule development induced by WSM1022 on MtRAR1 over-expressing plants. Three weeks old composite plants were inoculated and scored two weeks post inoculation. N≥30. student's t-test; *; P<0.05; **; P<0.01; ***; P<0.001. (e) Acetylene reduction assay. MtRAR1 treated (1 μM) and non treated wild-type plants grown in Fåhraeus medium were harvested at 2 week post inoculation by S. meliloti WSM1022. Nitrogenase activity was calculated from peak areas of samples relative to acetylene and ethylene standards to obtain nmoles ethylene/min. N≥3, student's t-test; *: P<0.05; **: P<0.01. Error bars indicate SE. (d) Inoculation of plants with performed CCPs led to root nodule formation at CCP sites at 25 mM KNO3. Arrow head: CCP sites: Arrows: nodules. […] Scale bar: 100 μm. Plants were grown at 20° C.
FIG. 32 M. truncatula plants were grown in 0.8% agar-containing plates supplemented with F media with or without MtRAR1 peptide. Five-day old seedlings were inoculated with S. meliloti strain WSM1022 and further grown for two mom weeks. MtRAR1 Domain 1: AFQ(P)TTPGNS(P)GVGH: MtRAR1 Domain 1 with G−>A transition: AFQ(P)TTPANS(P)GVGH. (P) is hydroxylproline and the altered amino acid is underlined.

Nitrogenase activity = experiment: Acetylene reduction assay (nitrogenase activity) of plants inoculated with S. meliloti WSM1022; format: in vivo, Medicago truncatula; settings: 1 μM peptide
Description: as §1

M. truncatula = experiment: Lateral root formation of plants grown in magenta jars with peptide; format: in vivo, Medicago truncatula; settings: 1 μM peptide, 5 mM KNO3, two weeks, P<0.05
Description: (§2) M. truncatula, M. sativa, Subterranean Clover Cultivar Woogenellup and white clover (Trifolium repens) plants were grown in 0.4% agar-containing magenta jars supplemented with F media with or without peptides for two weeks. The media contained 5 mM KNO3. MtRAR1 peptide: FQ(P)TTPGNS(P)GVGH where (P) is hydroxyproline. Students' t-test *: P<0.05; **; P<0.01; ***: P<0.001; N>12. Error bars represent SE.
(§3) To further validate and exemplify the RAR technology, we have examined RAR peptide addition of roots of various plant species.

Lucerne (M. sativa) = experiment: as above; format: in vivo; settings: 1 μM peptide
Description: as §2
The plants were grown in 0.4% agar-containing magenta jars supplemented with F media with or without peptides for two weeks. The medium contained 5 mM KNO3. MtRAR1 peptide: FQ(P)TTPGNS(P)GVGH where (P) is hydroxyproline.
as §3

[3] = system: Subterranean Clover Cultivar Woogenellup; experiment: as above; format: in vivo; settings: 1 μM peptide
Description: as §2
The plants were grows in 0.4% agar-containing magenta jars supplemented with F media with or without peptides for two weeks. The media contained 5 mM KNO3. MtRAR1 peptide: FQ(P)TTPGNS(P)GVGH where (P) is hydroxyproline.
as §3

[4] = system: white clover (Trifolium repens); experiment: as above; format: in vivo; settings: 1 μM peptide
Description: as §2
The plants were grown in 0.4% agar-containing magenta jars supplemented with F medium with on without peptides for two weeks. The media contained 5 mM KNO3. MtRAR1 peptide: […] where (P) is hydroxyproline.
as §3

[5] = system: microtom tomato seedlings; experiment: Plate assay, lateral root formation on microtom tomato seedlings; format: in vivo; settings: 1 μM peptide
Description: The plants were grown so 0.8% agar-containing plates supplemented with F media with or without peptides for two weeks. The media contained 5 mM KNO3. MtRAR1 peptide: […] where (P) is hydroxyproline. Students' t-test, **: P<0.01; N>12. Error bars represent SE.
The plants were grows in 0.8% agar-containing plates supplemented with F media with or without peptides for two weeks. The medium contained 5 mM KNO3. MtRAR1 peptide: FQ(P)TTPGNS(P)GVGH where (P) is hydroxyproline.
Primary root length was not affected (FIG. 6).

rice seedlings = experiment: Liquid culture (half strength MS), root formation of rice seedlings; format: in vivo; settings: 1 μM peptide
Description: The plants were grown in liquid media containing half strength MS media with or without peptides for two weeks. Monocot RAR peptide: DTRATDFGHS(P)GAGH where (P) is hydroxyproline. Students' t-test, *: P<0.05; N>6. Error bars represent SE.
The plants were grown in liquid media containing half strength MS media with or without peptides for two weeks. Monocot RAR peptide: DTRATDPGHS(P)GAGH where (P) is hydroxyproline:
Primary root length was also affected (FIG. 23).

[6] = system: Arabidopsis thaliana WT Col plants; experiment: Time course of RAR action in Arabidopsis over 12 days; format: in vivo; settings: 1 μM
Description: To see how RAR was exerting its effect on PR growth and lateral root emergence and growth, a time course was performed over 12 days, WT Col plants were grown vertically on ½ MS with 1% phytagel and 1 μM RAR6 hyP or no peptide, with 16 hr days at 22° C. Plates were scanned every day for 12 days.

[7] = system: Arabidopsis thaliana WT Col plants; experiment: Rescue: transfer of Arabidopsis plants between RAR and no RAR plates; format: in vivo
Description: To investigate whether the effect of RAR peptide addition could be released, WT Col plants were grown vertically for 6 days on […] plates with 1% phytagel. Plants were transferred from plates containing no RAR or 1 μM RAR6 hyP peptide (pre-treatment) to plates containing no RAR or 1 μM RAR6 hyP peptide as specified where they were left to grow for a further 6 days before being analysed.

[8] = range tested 10^−6 M to 10^−12 M, 12 days

NFR(P)TAPGHS(P)GVGH [GmRAR peptide]
Primary root length (soybean seedlings): affected | Number of roots (soybean seedlings; liquid F medium, 5 mM KNO3, two weeks, P<0.05): reduction

AFR[Hyp]TAPGHS[Hyp]GVGH [MhRAR2]
Periodic bump (CCP site) formation (M. truncatula roots): Maximum CCP site generation; also recorded: Periodic bumps

D F R hyP T (p-T) P G H S hyP G I G H [RAR6 phos]
Activity relative to the non-phosphorylated RAR6 peptide ([1]; in vivo): 1000 × | Concentration range at which the peptide is active (in words) [1, 8]: picomolar

D F V hyP T (p-S) P G N S hyP G V G H [RAR5 phos]
Effect of phosphorylation on activity ([1]; Arabidopsis RAR5): enhances activity

AFQ(P)TTPANS(P)GVGH [MtRAR1 Domain 1 with G−>A transition]
Inhibition of lateral root emergence (structure activity relationship of peptide variants) (M. truncatula roots; compared with MtRAR1 peptide): greatly attenuated | Nodule numbers ([2]; 1 μM peptide, 5 mM and 25 mM KNO3, trend = significant increase as with MtRAR1 over-expression): non-functional

D F V P T S P G N S P G V G H (DFVPTSPGNSPGVGH) [RAR5 no HyP]
Concentration at which the peptide is active [1, 8]: 10^−9 M

AFQ[Hyp]TTPGNS[Hyp]GVGH [MtRAR1 peptide]
Main root growth (M. truncatula roots; 10^−6 M peptide): significantly inhibited | Lateral root formation (M. truncatula roots; A17 plants, F medium containing 25 mM KNO3, 10^−6 M peptide): significantly reduced | Concentration for dose-dependent inhibition of lateral root emergence (M. truncatula roots; in vivo): greater than 10^−7 M | Periodic bump (CCP site) formation (M. truncatula roots): Maximum CCP site generation; also recorded: Periodic bumps | Numbers of pink functional nodules ([2]; 1 μM peptide, 5 mM and 25 mM KNO3, compared to controls): significantly higher numbers | Nodule development (nodule sections) ([2]; 0.5 mM or 25 mM KNO3, three weeks, versus untreated plants): accelerated nodule development | Nodule size ([2]; all across the nitrate regimen, versus no peptide or G->A peptide): much larger | Increase in nitrogenase activity (Nitrogenase activity; 0 mM KNO3, 2 week post inoculation): 35% | Increase in nitrogenase activity (Nitrogenase activity; 5 mM KNO3, 2 week post inoculation): 200% | Lateral root emergence (M. truncatula): significantly inhibited | CCP (bump) site formation (Lucerne (M. sativa)): formed CCP | Lateral root emergence (Lucerne (M. sativa); 5 mM KNO3, two weeks, P<0.05): significantly inhibited | CCP (bump) site formation [3]: formed CCP | Lateral root emergence ([3]; 5 mM KNO3, two weeks, P<0.05): significantly inhibited | CCP (bump) site formation [4]: formed CCP | Lateral root emergence ([4]; 5 mM KNO3, two weeks, P<0.05): significantly inhibited | Primary root length [5]: not affected | Number of lateral roots ([5]; 5 mM KNO3, two weeks, P<0.05): reduction

DTRATDPGHS(P)GAGH [Monocot RAR peptide]
Primary root length (rice seedlings): affected | Number of roots (rice seedlings; liquid half strength MS, two weeks, P<0.05): reduction

D F R hyP T T P G H S hyP G I G H [RAR6 hyP]
PR length, treated versus untreated ([6]; 2 days post imbibing): no significant difference | PR length, treated versus untreated ([6]; from day 3 onwards): significantly shorter | Number of lateral roots, treated versus untreated ([6]; scanned every day for 12 days): not significantly different until day 8 | Primary root length of plants pre-treated with RAR and transferred to no RAR versus plants exposed to RAR continuously ([7]; 1 μM, 6 + 6 days, p<0.05): significantly higher | Number of lateral roots after transfer to no RAR, by pre-treatment ([7]; 6 days pre-treatment with 1 μM or no RAR, then 6 days no RAR): the same

D F V hyP T S P G N S hyP G V G H [RAR5 hyP]
Concentration at which the peptide is active [1, 8]: 10^−8 M
